Test results reported in ChEMBL document CHEMBL3991601, “The target landscape of clinical kinase drugs” (Science, 2017).
Calls of active or inactive are those of the source.

Key:
[1] = molecular target: T1, Very long-chain specific acyl-CoA dehydrogenase, mitochondrial (Homo sapiens, UniProt P49748)
T1 sequence (P49748 whole entry): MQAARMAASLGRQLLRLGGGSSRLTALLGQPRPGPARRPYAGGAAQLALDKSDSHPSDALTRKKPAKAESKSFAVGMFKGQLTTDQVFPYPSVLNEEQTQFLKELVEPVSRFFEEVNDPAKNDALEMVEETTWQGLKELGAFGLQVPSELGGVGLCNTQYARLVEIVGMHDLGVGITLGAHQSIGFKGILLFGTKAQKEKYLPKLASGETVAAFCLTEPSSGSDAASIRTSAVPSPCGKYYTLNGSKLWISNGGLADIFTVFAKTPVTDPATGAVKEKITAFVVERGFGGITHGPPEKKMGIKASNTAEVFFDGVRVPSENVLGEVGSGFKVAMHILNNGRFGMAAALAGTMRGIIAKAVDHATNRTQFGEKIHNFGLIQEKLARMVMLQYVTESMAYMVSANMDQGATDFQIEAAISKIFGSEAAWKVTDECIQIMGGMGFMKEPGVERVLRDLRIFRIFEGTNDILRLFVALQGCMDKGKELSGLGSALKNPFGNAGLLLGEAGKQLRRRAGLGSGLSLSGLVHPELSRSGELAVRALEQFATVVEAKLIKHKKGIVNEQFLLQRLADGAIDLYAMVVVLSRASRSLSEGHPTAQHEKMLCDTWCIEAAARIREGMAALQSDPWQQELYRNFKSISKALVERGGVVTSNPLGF

[2] = molecular target: T2, ATP-dependent RNA helicase DDX1 (Homo sapiens, UniProt Q92499)
T2 sequence (Q92499 whole entry): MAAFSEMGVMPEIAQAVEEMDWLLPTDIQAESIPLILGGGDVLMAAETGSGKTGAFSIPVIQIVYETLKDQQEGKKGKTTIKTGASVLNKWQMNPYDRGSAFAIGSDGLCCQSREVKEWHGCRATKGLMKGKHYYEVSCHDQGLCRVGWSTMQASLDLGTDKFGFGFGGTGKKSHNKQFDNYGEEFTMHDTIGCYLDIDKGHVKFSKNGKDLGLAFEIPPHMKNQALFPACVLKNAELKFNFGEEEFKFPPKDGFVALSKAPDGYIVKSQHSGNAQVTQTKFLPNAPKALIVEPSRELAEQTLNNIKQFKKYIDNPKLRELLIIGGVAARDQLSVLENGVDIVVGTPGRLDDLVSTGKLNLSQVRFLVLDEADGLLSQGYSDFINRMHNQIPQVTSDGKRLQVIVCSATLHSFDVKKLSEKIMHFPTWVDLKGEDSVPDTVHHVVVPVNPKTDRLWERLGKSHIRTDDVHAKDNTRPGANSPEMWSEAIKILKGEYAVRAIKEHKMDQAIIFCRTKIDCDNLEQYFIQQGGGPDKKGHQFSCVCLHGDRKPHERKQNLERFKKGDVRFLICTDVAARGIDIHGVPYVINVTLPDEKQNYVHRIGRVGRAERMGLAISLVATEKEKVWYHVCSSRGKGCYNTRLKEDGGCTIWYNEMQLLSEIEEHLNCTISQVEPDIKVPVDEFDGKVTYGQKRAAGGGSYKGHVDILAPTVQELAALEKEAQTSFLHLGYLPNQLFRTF

[3] = molecular target: DnaJ homolog subfamily A member 1 (Homo sapiens, UniProt P31689)
[4] = molecular target: Mitogen-activated protein kinase kinase kinase kinase 1 (Homo sapiens, UniProt Q92918)
[5] = molecular target: T3, Mitogen-activated protein kinase kinase kinase kinase 2 (Homo sapiens, UniProt Q12851)
T3 sequence (Q12851 whole entry): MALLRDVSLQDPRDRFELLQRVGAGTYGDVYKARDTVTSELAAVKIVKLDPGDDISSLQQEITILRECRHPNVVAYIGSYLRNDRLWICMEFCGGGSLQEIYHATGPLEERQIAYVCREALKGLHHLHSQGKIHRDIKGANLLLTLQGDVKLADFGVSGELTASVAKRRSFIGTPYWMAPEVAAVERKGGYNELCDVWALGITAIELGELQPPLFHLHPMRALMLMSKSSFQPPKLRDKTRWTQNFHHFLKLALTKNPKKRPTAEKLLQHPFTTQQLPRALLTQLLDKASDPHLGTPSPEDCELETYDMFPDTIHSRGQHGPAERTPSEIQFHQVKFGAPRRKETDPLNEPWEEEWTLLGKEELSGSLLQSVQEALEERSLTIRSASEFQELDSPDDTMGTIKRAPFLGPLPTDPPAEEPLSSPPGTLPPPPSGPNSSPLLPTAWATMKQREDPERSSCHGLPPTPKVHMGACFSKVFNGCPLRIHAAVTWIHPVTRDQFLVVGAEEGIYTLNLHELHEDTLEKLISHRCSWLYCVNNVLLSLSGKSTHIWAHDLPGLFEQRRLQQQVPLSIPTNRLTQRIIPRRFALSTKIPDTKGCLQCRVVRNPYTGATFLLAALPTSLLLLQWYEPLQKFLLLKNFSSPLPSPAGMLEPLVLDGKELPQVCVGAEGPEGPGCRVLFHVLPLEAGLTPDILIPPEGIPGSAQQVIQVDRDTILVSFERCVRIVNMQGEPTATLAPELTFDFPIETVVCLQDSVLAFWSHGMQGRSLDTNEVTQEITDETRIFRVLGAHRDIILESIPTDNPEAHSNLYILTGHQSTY

[6] = molecular target: Mitogen-activated protein kinase 7 (Homo sapiens, UniProt Q13164)
[7] = molecular target: T4, MAP kinase-activated protein kinase 5 (Homo sapiens, UniProt Q8IW41)
T4 sequence (Q8IW41 whole entry): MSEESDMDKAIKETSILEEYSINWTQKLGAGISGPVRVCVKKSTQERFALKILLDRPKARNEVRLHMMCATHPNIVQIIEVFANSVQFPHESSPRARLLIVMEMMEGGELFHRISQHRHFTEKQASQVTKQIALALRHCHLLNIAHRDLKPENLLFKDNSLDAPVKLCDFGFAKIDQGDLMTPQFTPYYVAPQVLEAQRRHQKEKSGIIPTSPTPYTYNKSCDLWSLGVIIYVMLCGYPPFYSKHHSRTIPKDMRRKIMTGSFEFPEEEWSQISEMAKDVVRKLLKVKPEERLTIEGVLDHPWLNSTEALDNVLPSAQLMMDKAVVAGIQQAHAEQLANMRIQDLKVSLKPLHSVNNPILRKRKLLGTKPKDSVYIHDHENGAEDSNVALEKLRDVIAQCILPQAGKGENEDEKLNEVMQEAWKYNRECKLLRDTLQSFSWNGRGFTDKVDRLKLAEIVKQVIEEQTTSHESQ

[8] = molecular target: Ribosomal protein S6 kinase alpha-1 (Homo sapiens, UniProt Q15418)
[9] = molecular target: U5 small nuclear ribonucleoprotein 200 kDa helicase (Homo sapiens, UniProt O75643)

Measured: Kd
Further: in the data inactive means no Kd found up to 30 µM.

U5 small nuclear ribonucleoprotein 200 kDa helicase, sequence (O75643 whole entry): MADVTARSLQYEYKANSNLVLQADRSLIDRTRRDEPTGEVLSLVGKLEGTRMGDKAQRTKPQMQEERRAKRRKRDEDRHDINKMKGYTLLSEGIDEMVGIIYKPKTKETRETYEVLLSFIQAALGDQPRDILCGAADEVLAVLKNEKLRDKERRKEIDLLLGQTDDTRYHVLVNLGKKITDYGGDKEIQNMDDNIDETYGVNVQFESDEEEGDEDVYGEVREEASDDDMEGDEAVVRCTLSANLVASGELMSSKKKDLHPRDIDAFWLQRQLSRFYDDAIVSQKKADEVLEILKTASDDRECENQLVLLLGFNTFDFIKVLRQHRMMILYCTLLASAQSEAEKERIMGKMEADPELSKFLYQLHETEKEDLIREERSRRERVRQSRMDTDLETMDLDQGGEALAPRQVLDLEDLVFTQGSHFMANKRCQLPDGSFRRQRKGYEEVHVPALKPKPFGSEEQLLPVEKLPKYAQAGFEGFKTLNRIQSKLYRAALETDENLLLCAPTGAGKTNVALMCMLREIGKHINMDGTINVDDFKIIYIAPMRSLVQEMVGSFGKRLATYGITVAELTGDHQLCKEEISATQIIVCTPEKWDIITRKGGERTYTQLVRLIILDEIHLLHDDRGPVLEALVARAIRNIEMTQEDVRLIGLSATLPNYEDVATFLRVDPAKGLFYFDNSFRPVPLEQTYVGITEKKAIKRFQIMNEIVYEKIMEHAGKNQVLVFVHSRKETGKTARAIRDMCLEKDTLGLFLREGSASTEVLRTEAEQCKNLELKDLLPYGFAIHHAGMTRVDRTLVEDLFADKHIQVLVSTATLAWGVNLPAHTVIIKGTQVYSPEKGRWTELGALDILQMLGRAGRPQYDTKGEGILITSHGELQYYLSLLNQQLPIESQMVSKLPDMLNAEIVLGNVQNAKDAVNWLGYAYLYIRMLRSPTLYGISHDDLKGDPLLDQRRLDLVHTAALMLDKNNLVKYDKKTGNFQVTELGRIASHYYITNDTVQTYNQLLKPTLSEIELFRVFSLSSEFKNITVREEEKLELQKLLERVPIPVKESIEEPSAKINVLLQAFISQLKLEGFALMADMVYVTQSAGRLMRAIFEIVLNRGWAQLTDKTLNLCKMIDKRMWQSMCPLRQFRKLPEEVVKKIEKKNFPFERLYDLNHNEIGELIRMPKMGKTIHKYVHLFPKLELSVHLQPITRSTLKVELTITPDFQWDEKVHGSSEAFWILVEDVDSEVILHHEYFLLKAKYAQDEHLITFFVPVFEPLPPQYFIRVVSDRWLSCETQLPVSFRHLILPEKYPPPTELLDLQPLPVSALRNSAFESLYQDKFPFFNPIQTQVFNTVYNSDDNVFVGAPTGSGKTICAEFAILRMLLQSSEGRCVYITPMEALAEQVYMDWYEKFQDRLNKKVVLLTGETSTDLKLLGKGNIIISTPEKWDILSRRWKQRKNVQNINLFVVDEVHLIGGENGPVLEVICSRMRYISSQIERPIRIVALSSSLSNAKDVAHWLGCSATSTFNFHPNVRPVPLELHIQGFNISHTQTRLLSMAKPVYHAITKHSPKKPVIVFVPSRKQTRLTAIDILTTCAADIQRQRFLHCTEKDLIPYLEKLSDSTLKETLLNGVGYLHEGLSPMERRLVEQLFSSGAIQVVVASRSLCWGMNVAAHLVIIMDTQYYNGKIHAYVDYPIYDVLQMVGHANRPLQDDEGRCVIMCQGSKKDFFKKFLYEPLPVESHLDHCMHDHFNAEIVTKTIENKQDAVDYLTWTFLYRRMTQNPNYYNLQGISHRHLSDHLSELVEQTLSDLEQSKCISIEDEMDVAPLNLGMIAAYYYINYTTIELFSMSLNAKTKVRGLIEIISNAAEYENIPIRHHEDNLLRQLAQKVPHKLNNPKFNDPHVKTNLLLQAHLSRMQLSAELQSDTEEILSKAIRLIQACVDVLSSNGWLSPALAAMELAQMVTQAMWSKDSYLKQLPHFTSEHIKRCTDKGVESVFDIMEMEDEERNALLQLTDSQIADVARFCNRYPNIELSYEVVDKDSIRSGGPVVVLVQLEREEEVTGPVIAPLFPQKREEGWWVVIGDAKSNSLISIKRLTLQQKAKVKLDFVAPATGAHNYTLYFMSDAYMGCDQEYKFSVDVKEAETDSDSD
DnaJ homolog subfamily A member 1, sequence (P31689 whole entry): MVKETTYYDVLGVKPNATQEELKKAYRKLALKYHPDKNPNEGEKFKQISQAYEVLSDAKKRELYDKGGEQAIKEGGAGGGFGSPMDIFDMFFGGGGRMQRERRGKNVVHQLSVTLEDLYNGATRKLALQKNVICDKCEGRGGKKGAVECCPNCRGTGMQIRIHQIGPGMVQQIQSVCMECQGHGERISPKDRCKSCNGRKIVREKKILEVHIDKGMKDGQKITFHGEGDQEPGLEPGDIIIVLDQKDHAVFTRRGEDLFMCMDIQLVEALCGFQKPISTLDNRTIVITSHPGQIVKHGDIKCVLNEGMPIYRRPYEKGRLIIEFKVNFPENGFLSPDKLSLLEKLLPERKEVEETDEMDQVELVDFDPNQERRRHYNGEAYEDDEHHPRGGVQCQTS
Mitogen-activated protein kinase kinase kinase kinase 1, sequence (Q92918 whole entry): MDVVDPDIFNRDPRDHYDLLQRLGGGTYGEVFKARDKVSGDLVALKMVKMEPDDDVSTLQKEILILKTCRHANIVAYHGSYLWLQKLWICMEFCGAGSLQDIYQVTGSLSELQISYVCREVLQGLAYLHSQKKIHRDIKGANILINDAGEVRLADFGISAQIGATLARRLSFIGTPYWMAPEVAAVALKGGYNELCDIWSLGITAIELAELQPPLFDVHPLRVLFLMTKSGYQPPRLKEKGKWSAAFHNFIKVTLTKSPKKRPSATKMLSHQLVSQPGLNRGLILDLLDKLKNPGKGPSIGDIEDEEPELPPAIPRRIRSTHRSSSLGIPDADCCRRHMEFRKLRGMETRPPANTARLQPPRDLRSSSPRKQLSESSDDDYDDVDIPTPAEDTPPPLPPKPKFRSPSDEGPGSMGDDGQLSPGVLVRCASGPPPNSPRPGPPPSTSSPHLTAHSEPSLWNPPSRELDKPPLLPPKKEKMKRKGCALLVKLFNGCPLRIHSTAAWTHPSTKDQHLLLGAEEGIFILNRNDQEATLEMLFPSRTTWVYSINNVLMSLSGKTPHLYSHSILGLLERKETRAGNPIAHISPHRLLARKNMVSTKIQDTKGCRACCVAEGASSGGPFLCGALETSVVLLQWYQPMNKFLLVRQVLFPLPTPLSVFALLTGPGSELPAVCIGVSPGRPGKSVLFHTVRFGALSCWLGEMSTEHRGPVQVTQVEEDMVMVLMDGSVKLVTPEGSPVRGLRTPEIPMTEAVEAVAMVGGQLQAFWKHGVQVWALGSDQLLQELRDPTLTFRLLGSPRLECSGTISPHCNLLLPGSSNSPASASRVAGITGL
Ribosomal protein S6 kinase alpha-1, sequence (Q15418 whole entry): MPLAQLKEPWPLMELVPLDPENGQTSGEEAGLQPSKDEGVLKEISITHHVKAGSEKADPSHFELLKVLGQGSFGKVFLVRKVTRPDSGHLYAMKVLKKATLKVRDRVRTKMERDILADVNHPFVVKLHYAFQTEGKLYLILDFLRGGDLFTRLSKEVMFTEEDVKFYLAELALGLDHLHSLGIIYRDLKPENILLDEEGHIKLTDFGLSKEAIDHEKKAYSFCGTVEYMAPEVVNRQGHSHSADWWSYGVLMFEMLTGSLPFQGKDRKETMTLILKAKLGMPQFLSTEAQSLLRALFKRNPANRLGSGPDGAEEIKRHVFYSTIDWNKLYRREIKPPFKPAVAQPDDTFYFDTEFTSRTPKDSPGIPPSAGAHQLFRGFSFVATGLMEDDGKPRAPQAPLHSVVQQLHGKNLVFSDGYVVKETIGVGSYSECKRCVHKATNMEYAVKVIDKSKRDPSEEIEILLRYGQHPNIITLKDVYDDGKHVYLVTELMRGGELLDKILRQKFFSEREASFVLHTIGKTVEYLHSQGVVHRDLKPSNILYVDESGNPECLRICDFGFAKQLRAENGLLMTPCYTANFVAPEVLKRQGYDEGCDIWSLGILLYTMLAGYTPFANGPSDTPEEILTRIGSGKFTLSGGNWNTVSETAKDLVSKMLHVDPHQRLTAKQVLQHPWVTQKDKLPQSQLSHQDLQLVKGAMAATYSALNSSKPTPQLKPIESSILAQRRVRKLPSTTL
Mitogen-activated protein kinase 7, sequence (Q13164 whole entry): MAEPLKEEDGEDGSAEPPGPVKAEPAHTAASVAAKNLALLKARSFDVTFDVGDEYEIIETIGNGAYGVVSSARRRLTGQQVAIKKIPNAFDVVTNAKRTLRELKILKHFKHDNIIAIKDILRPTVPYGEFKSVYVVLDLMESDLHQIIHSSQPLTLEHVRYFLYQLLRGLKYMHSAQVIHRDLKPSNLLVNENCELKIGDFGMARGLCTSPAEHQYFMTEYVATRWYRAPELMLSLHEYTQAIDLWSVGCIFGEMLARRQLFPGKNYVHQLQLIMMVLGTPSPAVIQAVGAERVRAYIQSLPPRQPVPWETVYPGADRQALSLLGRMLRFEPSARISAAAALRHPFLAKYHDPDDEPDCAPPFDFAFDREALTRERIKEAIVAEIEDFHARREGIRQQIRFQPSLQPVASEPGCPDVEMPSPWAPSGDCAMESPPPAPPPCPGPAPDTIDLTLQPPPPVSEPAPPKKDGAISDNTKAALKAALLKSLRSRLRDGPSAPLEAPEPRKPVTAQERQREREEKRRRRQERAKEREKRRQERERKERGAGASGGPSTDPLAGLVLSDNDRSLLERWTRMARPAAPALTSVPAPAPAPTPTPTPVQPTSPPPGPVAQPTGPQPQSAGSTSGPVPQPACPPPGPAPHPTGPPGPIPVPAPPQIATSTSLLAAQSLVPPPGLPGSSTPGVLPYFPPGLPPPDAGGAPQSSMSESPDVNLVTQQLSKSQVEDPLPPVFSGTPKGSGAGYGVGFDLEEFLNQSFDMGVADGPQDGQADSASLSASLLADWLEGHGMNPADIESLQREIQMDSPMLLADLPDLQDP

COc1ccc2c(OCc3nnc4ccc(-c5ccccc5)nn34)ccnc2c1 [AMG-208]
inactive: [1] > 30 µM | [2] > 30 µM | [3] > 30 µM | [4] > 30 µM | [5] > 30 µM | [6] > 30 µM | [7] > 30 µM | [8] > 30 µM | [9] > 30 µM

COc1cc2ncnc(Nc3ccc(F)c(Cl)c3)c2cc1NC(=O)/C=C/CN1CCCCC1 [DACOMITINIB ANHYDROUS]
inactive: [1] > 30 µM | [2] > 30 µM | [3] > 30 µM | [4] > 30 µM | [5] > 30 µM | [6] > 30 µM | [7] > 30 µM | [8] > 30 µM | [9] > 30 µM

CC[C@@](C)(Nc1ccnc(-c2c[nH]c3ncccc23)n1)C(=O)NCC(F)(F)F [DECERNOTINIB]
inactive: [1] > 30 µM | [2] > 30 µM | [3] > 30 µM | [4] > 30 µM | [5] > 30 µM | [6] > 30 µM | [7] > 30 µM | [8] > 30 µM | [9] > 30 µM

O=C(NOC[C@H](O)CO)c1ccc(F)c(F)c1Nc1ccc(I)cc1F [MIRDAMETINIB]
inactive: [1] > 30 µM | [2] > 30 µM | [3] > 30 µM | [4] > 30 µM | [5] > 30 µM | [6] > 30 µM | [7] > 30 µM | [8] > 30 µM | [9] > 30 µM

COc1cc2nccc(Oc3ccc(NC(=O)C4(C(=O)Nc5ccc(F)cc5)CC4)cc3)c2cc1OC [CABOZANTINIB]
inactive: [1] > 30 µM | [2] > 30 µM | [3] > 30 µM | [4] > 30 µM | [5] > 30 µM | [6] > 30 µM | [7] > 30 µM | [8] > 30 µM | [9] > 30 µM
